Measurements from patent US20240360177A1, “PEPTIDES WITH ANTIMICROBIAL ACTIVITIES” (priority 2021, published 2024).
Converted amounts (≈) assume the structure as drawn. Non-standard residues stand in square brackets, D forms with d. Residues, ends and D or L forms follow the SMILES beside them. Tic = O=C(O)[C@@H]1Cc2ccccc2CN1; Aoc = NCCCCCCCC(=O)O

Assays:
[1] = test system: C. neoformans; settings: 72 h
[2] = test system: Scedosporium spp.; settings: 72 h
[3] = test system: C. gattii; settings: 72 h
[4] = test system: C. glabrata; settings: 24 h
[5] = test system: C. dubliniensis; settings: 24 h
[6] = test system: C. auris; settings: 24 h
[7] = test system: C. parapsilosis; settings: 24 h
[8] = test system: C. albicans; settings: 24 h
[9] = test system: Fusarium spp.; settings: 48 h
[10] = test system: C. tropicalis; settings: 24 h
[11] = test system: Lomentospora prolificans
[12] = test system: C. krusei; settings: 24 h
[13] = in vitro; settings: human, EC50 cytotoxicity in HepG2, intracellular ATP assay
[14] = test system: Candida spp.

Compound	MIC C. neoformans [1]	MIC Range Scedosporium spp. [2]	MIC C. gattii [3]	MIC C. glabrata [4]	MIC C. dubliniensis [5]	MIC C. auris [6]	MIC C. parapsilosis [7]	MIC C. albicans [8]	MIC C. tropicalis [10]	MIC Range Lomentospora prolificans [11]	MIC C. krusei [12]	Activity at 24 h MIC50 against Candida spp. ([14]; 24 h)	Activity at 24 h MIC90 against Candida spp. ([14]; 24 h)	Activity at 48 h MIC50 against Candida spp. ([14]; 48 h)	Activity at 48 h MIC90 against Candida spp. ([14]; 48 h)	MIC Range Fusarium spp. [9]	EC50 [13]
CC(=O)N[C@H](CCCNC(=N)N)C(=O)N[C@@H](CCCNC(=N)N)C(=O)N[C@H](CCCNC(=N)N)C(=O)NCCCCCCCC(=O)N[C@H](CCCNC(=N)N)C(=O)N[C@@H](CCCNC(=N)N)C(=O)N[C@H](CCCNC(=N)N)C(=O)NCCCCCCCC(=O)N[C@H](CCCNC(=N)N)C(=O)N[C@@H](CCCNC(=N)N)C(=O)N[C@H](CCCNC(=N)N)C(=O)N[C@@H](CCCNC(=N)N)C(=O)NCCCCCCCC(=O)N[C@H](CCCNC(=N)N)C(=O)N[C@@H](CCCNC(=N)N)C(=O)N[C@H](CCCNC(=N)N)C(=O)N[C@@H](CCCNC(=N)N)C(N)=O [SEQ ID NO: 31, CH3CONH-rRr-(Aoa)-rRr-(Aoa)-rRrR-(Aoa)-rRrR-NH2] (Ac-[dR]R[dR][Aoc][dR]R[dR][Aoc][dR]R[dR]R[Aoc][dR]R[dR]R-NH2)	0.5 µg/mL (≈ 0.187 µM)	0.5 to 2 µg/mL	0.5 µg/mL (≈ 0.187 µM)	1 µg/mL (≈ 0.375 µM)	1 µg/mL (≈ 0.375 µM)	0.5 µg/mL (≈ 0.187 µM)	0.25 µg/mL (≈ 0.0937 µM)	1 µg/mL (≈ 0.375 µM)	0.5 µg/mL (≈ 0.187 µM)	2 µg/mL (≈ 0.749 µM)	0.5 µg/mL (≈ 0.187 µM)	–	–	–	–	0.25 to 4 µg/mL	–
CC(=O)N[C@H](CCCNC(=N)N)C(=O)N[C@@H](CCCNC(=N)N)C(=O)N[C@H](CCCNC(=N)N)C(=O)N1CCC[C@H]1C(=O)N[C@H](CCCNC(=N)N)C(=O)N[C@@H](CCCNC(=N)N)C(=O)N[C@H](CCCNC(=N)N)C(=O)N1CCC[C@H]1C(=O)N[C@H](CCCNC(=N)N)C(=O)N[C@@H](CCCNC(=N)N)C(=O)N[C@H](CCCNC(=N)N)C(=O)N[C@@H](CCCNC(=N)N)C(=O)N1CCC[C@H]1C(=O)N[C@H](CCCNC(=N)N)C(=O)N[C@@H](CCCNC(=N)N)C(=O)N[C@H](CCCNC(=N)N)C(=O)N[C@@H](CCCNC(=N)N)C(N)=O [SEQ ID NO: 55, CH3CONH-rRr-P-rRr-P-rRrR-P-rRrR-NH2] (Ac-[dR]R[dR]P[dR]R[dR]P[dR]R[dR]RP[dR]R[dR]R-NH2)	0.5 µg/mL (≈ 0.197 µM)	0.5 to 1 µg/mL	1 µg/mL (≈ 0.394 µM)	0.5 µg/mL (≈ 0.197 µM)	0.5 µg/mL (≈ 0.197 µM)	1 µg/mL (≈ 0.394 µM)	0.25 µg/mL (≈ 0.0985 µM)	1 µg/mL (≈ 0.394 µM)	0.5 µg/mL (≈ 0.197 µM)	1 µg/mL (≈ 0.394 µM)	2 µg/mL (≈ 0.788 µM)	–	–	–	–	0.25 to 1 µg/mL	–
N=C(N)NCCC[C@@H](N)C(=O)N[C@@H](CCCNC(=N)N)C(=O)N[C@H](CCCNC(=N)N)C(=O)N[C@@H](CCCNC(=N)N)C(=O)N1CCC[C@H]1C(=O)N[C@H](CCCNC(=N)N)C(=O)N[C@@H](CCCNC(=N)N)C(=O)N[C@H](CCCNC(=N)N)C(=O)N[C@@H](CCCNC(=N)N)C(=O)N1CCC[C@H]1C(=O)N[C@H](CCCNC(=N)N)C(=O)N[C@@H](CCCNC(=N)N)C(=O)N[C@H](CCCNC(=N)N)C(=O)N1CCC[C@H]1C(=O)N[C@H](CCCNC(=N)N)C(=O)N[C@@H](CCCNC(=N)N)C(=O)N[C@H](CCCNC(=N)N)C(N)=O [SEQ ID NO: 60, rRrR-P-rRrR-P-rRr-P-rRr-NH2] (H-[dR]R[dR]RP[dR]R[dR]RP[dR]R[dR]P[dR]R[dR]-NH2)	–	–	–	0.25 µg/mL (≈ 0.1 µM)	0.25 µg/mL (≈ 0.1 µM)	0.5 µg/mL (≈ 0.2 µM)	0.25 µg/mL (≈ 0.1 µM)	0.25 µg/mL (≈ 0.1 µM)	0.25 µg/mL (≈ 0.1 µM)	–	0.5 µg/mL (≈ 0.2 µM)	–	–	–	–	–	> 300 µg/mL
N=C(N)NCCC[C@@H](N)C(=O)N[C@@H](CCCNC(=N)N)C(=O)N[C@H](CCCNC(=N)N)C(=O)N[C@@H](CCCNC(=N)N)C(=O)N[C@H](CCCNC(=N)N)C(=O)N[C@@H](CCCNC(=N)N)C(=O)N[C@H](CCCNC(=N)N)C(=O)N1CCC[C@H]1C(=O)N[C@H](CCCNC(=N)N)C(=O)N[C@@H](CCCNC(=N)N)C(=O)N[C@H](CCCNC(=N)N)C(=O)N[C@@H](CCCNC(=N)N)C(=O)N[C@H](CCCNC(=N)N)C(=O)N[C@@H](CCCNC(=N)N)C(=O)N[C@H](CCCNC(=N)N)C(N)=O [SEQ ID NO: 62, rRrRrRr-P-rRrRrRr-NH2] (H-[dR]R[dR]R[dR]R[dR]P[dR]R[dR]R[dR]R[dR]-NH2)	–	–	–	0.5 µg/mL (≈ 0.217 µM)	0.25 µg/mL (≈ 0.109 µM)	2 µg/mL (≈ 0.869 µM)	0.25 µg/mL (≈ 0.109 µM)	0.25 µg/mL (≈ 0.109 µM)	0.25 µg/mL (≈ 0.109 µM)	–	0.5 µg/mL (≈ 0.217 µM)	0.5 µg/mL	4 µg/mL	0.5 µg/mL	32 µg/mL	–	> 300 µg/mL

Now from value to compound, other results behind:

MIC C. neoformans [1]	MIC Range Scedosporium spp. [2]	MIC C. gattii [3]	MIC C. glabrata [4]	MIC C. dubliniensis [5]	MIC C. auris [6]	MIC C. parapsilosis [7]	MIC C. albicans [8]	MIC C. tropicalis [10]	MIC Range Lomentospora prolificans [11]	MIC C. krusei [12]	Activity at 24 h MIC50 against Candida spp. ([14]; 24 h)	Activity at 24 h MIC90 against Candida spp. ([14]; 24 h)	Activity at 48 h MIC50 against Candida spp. ([14]; 48 h)	Activity at 48 h MIC90 against Candida spp. ([14]; 48 h)	Compound	MIC Range Fusarium spp. [9]	EC50 [13]
8 µg/mL (≈ 4.28 µM)	4 to 8 µg/mL	4 µg/mL (≈ 2.14 µM)	1 µg/mL (≈ 0.535 µM)	1 µg/mL (≈ 0.535 µM)	>32 µg/mL	0.25 µg/mL (≈ 0.134 µM)	0.5 µg/mL (≈ 0.267 µM)	0.5 µg/mL (≈ 0.267 µM)	8 µg/mL (≈ 4.28 µM)	2 µg/mL (≈ 1.07 µM)	–	–	–	–	N=C(N)NCCC[C@@H](N)C(=O)N[C@@H](CCCNC(=N)N)C(=O)N1CCC[C@H]1C(=O)N[C@H](CCCNC(=N)N)C(=O)N[C@@H](CCCNC(=N)N)C(=O)N[C@H](CCCNC(=N)N)C(=O)N1CCC[C@H]1C(=O)N[C@H](CCCNC(=N)N)C(=O)N[C@@H](CCCNC(=N)N)C(=O)N[C@H](CCCNC(=N)N)C(=O)N1CCC[C@H]1C(=O)N[C@H](CCCNC(=N)N)C(=O)N[C@@H](CCCNC(=N)N)C(N)=O [SEQ ID NO: 71, rR-P-rRr-P-rRr-P-rR-NH2] (H-[dR]RP[dR]R[dR]P[dR]R[dR]P[dR]R-NH2)	–	–
16 µg/mL (≈ 8.55 µM)	16 µg/mL (≈ 8.55 µM)	4 µg/mL (≈ 2.14 µM)	1 µg/mL (≈ 0.535 µM)	2 µg/mL (≈ 1.07 µM)	>32 µg/mL	0.25 µg/mL (≈ 0.134 µM)	2 µg/mL (≈ 1.07 µM)	0.5 µg/mL (≈ 0.267 µM)	32 µg/mL (≈ 17.1 µM)	2 µg/mL (≈ 1.07 µM)	–	–	–	–	N=C(N)NCCC[C@@H](N)C(=O)N[C@@H](CCCNC(=N)N)C(=O)N1CCC[C@H]1C(=O)N[C@H](CCCNC(=N)N)C(=O)N[C@@H](CCCNC(=N)N)C(=O)N[C@H](CCCNC(=N)N)C(=O)N1CCC[C@H]1C(=O)N[C@H](CCCNC(=N)N)C(=O)N[C@@H](CCCNC(=N)N)C(=O)N1CCC[C@H]1C(=O)N[C@H](CCCNC(=N)N)C(=O)N[C@@H](CCCNC(=N)N)C(=O)N[C@H](CCCNC(=N)N)C(N)=O [SEQ ID NO: 72, rR-P-rRr-P-rR-P-rRr-NH2] (H-[dR]RP[dR]R[dR]P[dR]RP[dR]R[dR]-NH2)	–	–
8 µg/mL (≈ 4.28 µM)	8 to 16 µg/mL	2 µg/mL (≈ 1.07 µM)	1 µg/mL (≈ 0.535 µM)	2 µg/mL (≈ 1.07 µM)	>32 µg/mL	0.5 µg/mL (≈ 0.267 µM)	1 µg/mL (≈ 0.535 µM)	1 µg/mL (≈ 0.535 µM)	32 µg/mL (≈ 17.1 µM)	2 µg/mL (≈ 1.07 µM)	–	–	–	–	N=C(N)NCCC[C@@H](N)C(=O)N[C@@H](CCCNC(=N)N)C(=O)N1CCC[C@H]1C(=O)N[C@H](CCCNC(=N)N)C(=O)N[C@@H](CCCNC(=N)N)C(=O)N1CCC[C@H]1C(=O)N[C@H](CCCNC(=N)N)C(=O)N[C@@H](CCCNC(=N)N)C(=O)N[C@H](CCCNC(=N)N)C(=O)N1CCC[C@H]1C(=O)N[C@H](CCCNC(=N)N)C(=O)N[C@@H](CCCNC(=N)N)C(=O)N[C@H](CCCNC(=N)N)C(N)=O [SEQ ID NO: 73, rR-P-rR-P-rRr-P-rRr-NH2] (H-[dR]RP[dR]RP[dR]R[dR]P[dR]R[dR]-NH2)	–	–
–	–	–	0.5 µg/mL (≈ 0.186 µM)	0.5 µg/mL (≈ 0.186 µM)	0.5 µg/mL (≈ 0.186 µM)	0.5 µg/mL (≈ 0.186 µM)	0.5 µg/mL (≈ 0.186 µM)	0.5 µg/mL (≈ 0.186 µM)	–	1 µg/mL (≈ 0.373 µM)	–	–	–	–	N=C(N)NCCC[C@@H](N)C(=O)N[C@@H](CCCNC(=N)N)C(=O)N[C@H](CCCNC(=N)N)C(=O)N1Cc2ccccc2C[C@H]1C(=O)N[C@H](CCCNC(=N)N)C(=O)N[C@@H](CCCNC(=N)N)C(=O)N[C@H](CCCNC(=N)N)C(=O)N1Cc2ccccc2C[C@H]1C(=O)N[C@H](CCCNC(=N)N)C(=O)N[C@@H](CCCNC(=N)N)C(=O)N[C@H](CCCNC(=N)N)C(=O)N[C@@H](CCCNC(=N)N)C(=O)N1Cc2ccccc2C[C@H]1C(=O)N[C@H](CCCNC(=N)N)C(=O)N[C@@H](CCCNC(=N)N)C(=O)N[C@H](CCCNC(=N)N)C(=O)N[C@@H](CCCNC(=N)N)C(N)=O [SEQ ID NO: 76, rRr-(Tic)-rRr-(Tic)-rRrR-(Tic)-rRrR-NH2] (H-[dR]R[dR][Tic][dR]R[dR][Tic][dR]R[dR]R[Tic][dR]R[dR]R-NH2)	–	139 µg/mL (≈ 51.7 µM)
